Series [1] has as its target Beta-1 adrenergic receptor (Homo sapiens, UniProt P08588). Briefly: Binding affinity to adrenergic beta1 receptor (unknown origin).
Series [2] deals with C-C chemokine receptor type 2 (Homo sapiens, UniProt P41597). Briefly: Binding affinity to CCR2 (unknown origin).
Series [3] concerns Mus musculus. As to the kind of experiment: Toxicity in athymic nude mouse assessed as hunched posture at 100 mg/kg, po bid for 8 days. The format is organism-based. Particulars: in vivo, 192 h. The arrangement: dose 100 mg/kg, route oral.
For series [4], the system named is Mus musculus. Briefly: In vivo inhibition of tankyrase-mediated Wnt gene transcription in tumor of athymic nude mouse xenografted with human DLD1 cells at 50 mg/kg, po bid for 3 days by STF assay. As to conditions: DLD-1. The arrangement: dose 50 mg/kg. The format is functional, organism-based. (A xenograft is tissue or cells of one species grown in another, often human tumour cells in immunodeficient mice.)

The target in series [5] is C-X-C chemokine receptor type 2 (Homo sapiens, UniProt P25025). Briefly: Binding affinity to CXCR2 (unknown origin).
Chain of C-X-C chemokine receptor type 2 (P25025 whole entry): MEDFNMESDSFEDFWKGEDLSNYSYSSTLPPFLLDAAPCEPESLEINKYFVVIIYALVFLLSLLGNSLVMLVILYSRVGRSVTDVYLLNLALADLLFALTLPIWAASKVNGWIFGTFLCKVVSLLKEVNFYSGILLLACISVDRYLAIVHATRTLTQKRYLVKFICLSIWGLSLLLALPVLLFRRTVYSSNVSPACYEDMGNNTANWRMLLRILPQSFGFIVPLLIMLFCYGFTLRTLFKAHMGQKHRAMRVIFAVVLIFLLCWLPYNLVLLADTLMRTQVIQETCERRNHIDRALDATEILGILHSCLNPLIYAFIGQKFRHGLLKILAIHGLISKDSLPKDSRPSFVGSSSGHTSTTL
Series [6] concerns Mus musculus. Briefly: In vivo inhibition of tankyrase in tumor of athymic nude mouse xenografted with human DLD1 cells assessed as axin accumulation at 50 mg/kg, po bid for 3 days. The format is functional, organism-based. More on the design: dose 50 mg/kg. Particulars: DLD-1.
Series [7] deals with Mus musculus. As to the kind of experiment: Toxicity in athymic nude mouse assessed as cold at 100 mg/kg, po bid for 8 days. Type of series: organism-based. The arrangement: dose 100 mg/kg, route oral. Particulars: in vivo, 192 h.
The next series addresses D(2) dopamine receptor (Homo sapiens, UniProt P14416). As to the kind of experiment: Binding affinity to dopamine D2 receptor (unknown origin).
A further series deals with Substance-P receptor (Homo sapiens, UniProt P25103). As to the kind of experiment: Binding affinity to NK1 receptor (unknown origin).
Chain of Substance-P receptor (P25103 whole entry): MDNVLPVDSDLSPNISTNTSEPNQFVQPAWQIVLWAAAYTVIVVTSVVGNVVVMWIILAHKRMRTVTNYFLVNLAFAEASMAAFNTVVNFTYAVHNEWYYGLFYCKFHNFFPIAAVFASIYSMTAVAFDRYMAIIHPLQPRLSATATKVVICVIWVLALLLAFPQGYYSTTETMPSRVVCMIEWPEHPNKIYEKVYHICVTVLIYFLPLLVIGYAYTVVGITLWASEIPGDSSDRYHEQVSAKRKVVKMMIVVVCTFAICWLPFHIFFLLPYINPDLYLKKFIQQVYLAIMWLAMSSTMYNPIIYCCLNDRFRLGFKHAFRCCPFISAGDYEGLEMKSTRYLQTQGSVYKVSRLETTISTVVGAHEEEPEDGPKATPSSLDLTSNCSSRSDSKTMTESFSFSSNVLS
Series [8] has as its system Mus musculus. As to the kind of experiment: Toxicity in athymic nude mouse assessed as diarrhea at 100 mg/kg, po bid for 8 days. The arrangement: dose 100 mg/kg, route oral. Type of series: organism-based. As to conditions: in vivo, 192 h.
The target of the next series is Adenosine receptor A2a (Homo sapiens, UniProt P29274). As to the kind of experiment: Binding affinity to adenosine A2A receptor (unknown origin).
Chain of Adenosine receptor A2a (P29274 whole entry): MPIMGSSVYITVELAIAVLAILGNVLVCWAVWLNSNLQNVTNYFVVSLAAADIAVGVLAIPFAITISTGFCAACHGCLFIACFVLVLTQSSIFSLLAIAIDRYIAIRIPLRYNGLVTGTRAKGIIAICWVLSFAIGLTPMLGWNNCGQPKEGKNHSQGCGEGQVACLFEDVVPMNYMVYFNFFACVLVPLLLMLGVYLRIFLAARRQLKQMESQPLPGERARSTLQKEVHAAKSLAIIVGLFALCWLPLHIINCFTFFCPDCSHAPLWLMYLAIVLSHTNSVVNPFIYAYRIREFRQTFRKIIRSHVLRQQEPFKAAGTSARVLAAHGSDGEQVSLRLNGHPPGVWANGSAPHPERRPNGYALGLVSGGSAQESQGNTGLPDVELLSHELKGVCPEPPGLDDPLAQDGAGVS
A short description of series [9]: Cytotoxicity against human DLD1 cells. The format is functional, cell-based. Particulars: DLD-1.
For series [10], the system named is Mus musculus. As to the kind of experiment: Toxicity in athymic nude mouse assessed as dehydration at 100 mg/kg, po bid for 8 days. The format is organism-based. The arrangement: dose 100 mg/kg, route oral. Particulars: in vivo, 192 h.
The subject of series [11] is Mus musculus. Briefly: Toxicity in athymic nude mouse assessed as lethargy at 100 mg/kg, po bid for 8 days. Type of series: organism-based. More on the design: dose 100 mg/kg, route oral. Particulars: in vivo, 192 h.
The test system of series [12] is Mus musculus. Briefly: In vivo inhibition of tankyrase in tumor of athymic nude mouse xenografted with human DLD1 cells assessed as axin accumulation at 200 mg/kg, po bid for 3 days. The arrangement: dose 200 mg/kg. Type of series: functional, organism-based. As to conditions: DLD-1.
Series [13] concerns Mus musculus. Briefly: In vivo inhibition of tankyrase-mediated TCF7 gene expression in tumor of athymic nude mouse xenografted with human DLD1 cells at 200 mg/kg, po bid for 3 days by STF assay. As to conditions: DLD-1. The format is functional, organism-based. The arrangement: dose 200 mg/kg.

Activity calls are given as the source filed them. The calls are words filed in the database; no cut-off is given here. A value given as a limit tells only on which side of the number the result lay.

Chain of Beta-1 adrenergic receptor (P08588 whole entry): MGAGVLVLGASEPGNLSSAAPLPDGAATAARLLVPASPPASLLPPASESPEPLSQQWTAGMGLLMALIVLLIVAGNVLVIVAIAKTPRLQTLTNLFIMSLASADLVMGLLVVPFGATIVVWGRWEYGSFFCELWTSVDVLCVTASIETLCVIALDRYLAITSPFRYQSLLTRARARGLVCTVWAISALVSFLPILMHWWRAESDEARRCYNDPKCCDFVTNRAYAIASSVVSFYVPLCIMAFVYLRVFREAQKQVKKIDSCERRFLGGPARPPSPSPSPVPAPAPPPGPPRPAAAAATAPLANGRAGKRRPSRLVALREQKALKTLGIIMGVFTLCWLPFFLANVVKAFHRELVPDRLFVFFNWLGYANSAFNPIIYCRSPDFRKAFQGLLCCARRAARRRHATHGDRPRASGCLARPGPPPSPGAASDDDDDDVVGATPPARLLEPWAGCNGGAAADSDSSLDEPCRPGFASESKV
Chain of D(2) dopamine receptor (P14416 whole entry): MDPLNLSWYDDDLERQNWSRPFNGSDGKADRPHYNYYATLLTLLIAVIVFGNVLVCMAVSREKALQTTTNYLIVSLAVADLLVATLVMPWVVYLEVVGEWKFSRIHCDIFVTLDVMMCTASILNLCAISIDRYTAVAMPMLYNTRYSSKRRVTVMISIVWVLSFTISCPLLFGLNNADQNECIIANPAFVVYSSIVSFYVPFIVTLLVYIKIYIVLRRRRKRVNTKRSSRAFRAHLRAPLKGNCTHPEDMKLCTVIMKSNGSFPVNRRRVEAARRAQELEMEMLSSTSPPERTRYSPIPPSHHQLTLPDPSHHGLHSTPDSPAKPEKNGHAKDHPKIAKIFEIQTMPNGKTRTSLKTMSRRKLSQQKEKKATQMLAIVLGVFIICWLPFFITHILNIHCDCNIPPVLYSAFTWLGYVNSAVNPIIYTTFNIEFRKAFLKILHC
Chain of C-C chemokine receptor type 2 (P41597 whole entry): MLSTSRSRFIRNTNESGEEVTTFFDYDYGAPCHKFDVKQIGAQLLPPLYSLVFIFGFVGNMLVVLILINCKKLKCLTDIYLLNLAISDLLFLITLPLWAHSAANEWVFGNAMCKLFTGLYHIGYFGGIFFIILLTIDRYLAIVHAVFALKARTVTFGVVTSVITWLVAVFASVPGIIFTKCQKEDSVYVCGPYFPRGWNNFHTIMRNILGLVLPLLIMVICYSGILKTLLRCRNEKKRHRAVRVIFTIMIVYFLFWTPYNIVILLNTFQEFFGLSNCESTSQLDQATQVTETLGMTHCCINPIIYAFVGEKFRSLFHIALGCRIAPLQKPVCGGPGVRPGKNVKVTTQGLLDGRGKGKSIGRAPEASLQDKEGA

On to `CC1(C)OC(=O)N([C@H]2CC[C@H](c3cnc(N)c(-c4ncccn4)c3)CC2)[C@H]1c1ccccc1`, for which the IC50 (in series [1]; in series [2]; in series [5]; on D(2) dopamine receptor; at Substance-P receptor; on Adenosine receptor A2a) was above 48.5 µM throughout. Besides, the IC50 in [9] is 3 µM. In addition, the Activity result in the series with Mus musculus [3], with Mus musculus [7], in the series with Mus musculus [8], in the series on Mus musculus [10] and in the series with Mus musculus [11] was “Toxic” each time. Besides, the inhibition result with Mus musculus [4] and in the series on Mus musculus [6] was “Active” in each case.

As for `CC1(C)OC(=O)N(c2ccc(-c3cnc(N)c(-c4ncccn4)c3)cc2)[C@H]1c1ccccc1`, the inhibition result in the series with Mus musculus [12] and with Mus musculus [13] was “Active” throughout.

As usually defined, the IC50 is the concentration that inhibits the measured activity by half.

For the origin of these results see ChEMBL document CHEMBL3098003, “Structure-based design of 2-aminopyridine oxazolidinones as potent and selective tankyrase inhibitors” (ACS Med Chem Lett, 2013).
